According to patent US5792747A, “Highly potent agonists of growth hormone releasing hormone” (The Administrators of the Tulane Educational Fund, priority 1995, dated 1998):
Non-standard residues stand in square brackets, D forms with d. Residues, ends and D or L forms follow the SMILES beside them. No end group written: not given here. *: point of attachment. Desaminotyrosyl = O=C(CCc1ccc(O)cc1)*; Agmatine = N=C(N)NCCCCN*; Nle = CCCC[C@H](N)C(=O)O; Orn = NCCC[C@H](N)C(=O)O; Abu = CC[C@H](N)C(=O)O

Assays:
[1] = test system: superfused rat pituitary cell system; test: GH release in superfused rat pituitary cell system (in vitro); format: cell-based; settings: 0.1-0.5 nM, 3 min administration, superfused rat pituitary cells
Description: The compounds of the present invention were tested both in vitro and in vivo. The levels of GH released in vivo by the synthetic peptides, following their intravenous (i.v.) or subcutaneous (sc.) injection in rats, are shown in Tables 2 and 3 respectively. The potencies of the peptides, based on 4-point assays, were calculated in all the Examples of this specification, by the factorial analyses of Bliss and Marks with 95% confidence limits.
Growth hormone releasing activity in vitro is assayed by using a superfused rat pituitary cell system as described in S. Vigh and A. V. Schally, Peptides 5, Suppl: 241-347, 1984, which is incorporated by reference herein. Each peptide, hGH-RH (1-29)NH2 (as control) and the synthetic peptide hGH-RH analogs of the present invention, is administered for 3 minutes (1 ml. perfusate) at various concentrations as shown below. Fractions of 1 ml are coIlected and the GH content in each is determined by RIA.

GH-deficient children = settings: subcutaneously twice a day; cited from earlier work

| Molecule | Potency relative to hGH-RH(1-29)NH2 = 1 (GH release in vitro) [1] | share of GH-deficient children in whom linear growth was promoted (GH-deficient children) |
| --- | --- | --- |
| CCCC[C@H](NC(=O)[C@@H](NC(=O)[C@H](CC(=O)O)NC(=O)[C@H](CCC(N)=O)NC(=O)[C@H](CC(C)C)NC(=O)[C@H](CC(C)C)NC(=O)[C@H](CCCN)NC(=O)[C@H](CCCNC(=N)N)NC(=O)[C@H](C)NC(=O)[C@H](CO)NC(=O)[C@H](CC(C)C)NC(=O)[C@H](CCC(N)=O)NC(=O)[C@H](CC)NC(=O)[C@H](CC(C)C)NC(=O)[C@@H](NC(=O)[C@H](CCCN)NC(=O)[C@H](CCCNC(=N)N)NC(=O)[C@H](Cc1ccc(O)cc1)NC(=O)[C@H](CO)NC(=O)[C@H](CC(N)=O)NC(=O)[C@@H](NC(=O)[C@H](Cc1ccccc1)NC(=O)[C@@H](NC(=O)[C@H](C)NC(=O)[C@H](CC(=O)O)NC(=O)[C@H](C)NC(=O)CCc1ccc(O)cc1)[C@@H](C)CC)[C@@H](C)O)C(C)C)[C@@H](C)CC)C(=O)N[C@@H](CO)C(=O)NCCCCNC(=N)N [Example I, (Dat^1,Orn ^12,21,Abu^15,Nle^27,Agm^29)hGH-RH(1-29)] (Desaminotyrosyl-ADAIFTNSYR[Orn]VL[Abu]QLSAR[Orn]LLQDI[Nle]S-Agmatine) | 5.9 | – |
| CCCC[C@H](NC(=O)[C@@H](NC(=O)[C@H](CC(=O)O)NC(=O)[C@H](CCC(N)=O)NC(=O)[C@H](CC(C)C)NC(=O)[C@H](CC(C)C)NC(=O)[C@H](CCCCN)NC(=O)[C@H](CCCNC(=N)N)NC(=O)[C@H](C)NC(=O)[C@H](CO)NC(=O)[C@H](CC(C)C)NC(=O)[C@H](CCC(N)=O)NC(=O)[C@H](CC)NC(=O)[C@H](CC(C)C)NC(=O)[C@@H](NC(=O)[C@H](CCCN)NC(=O)[C@H](CCCNC(=N)N)NC(=O)[C@H](Cc1ccc(O)cc1)NC(=O)[C@H](CO)NC(=O)[C@H](CC(N)=O)NC(=O)[C@@H](NC(=O)[C@H](Cc1ccccc1)NC(=O)[C@@H](NC(=O)[C@H](C)NC(=O)[C@H](CC(=O)O)NC(=O)[C@H](C)NC(=O)CCc1ccc(O)cc1)[C@@H](C)CC)[C@@H](C)O)C(C)C)[C@@H](C)CC)C(=O)N[C@@H](CO)C(=O)NCCCCNC(=N)N [Example III, (Dat^1,Orn^12,Abu^15,Nle^27,Agm^29)hGH-RH(1-29)] (Desaminotyrosyl-ADAIFTNSYR[Orn]VL[Abu]QLSARKLLQDI[Nle]S-Agmatine) | 3.8 | – |
| CCCC[C@H](NC(=O)[C@@H](NC(=O)[C@H](CC(=O)O)NC(=O)[C@H](CCC(N)=O)NC(=O)[C@H](CC(C)C)NC(=O)[C@H](CC(C)C)NC(=O)[C@H](CCCN)NC(=O)[C@H](CCCNC(=N)N)NC(=O)[C@H](C)NC(=O)[C@H](CO)NC(=O)[C@H](CC(C)C)NC(=O)[C@H](CCC(N)=O)NC(=O)[C@H](CC)NC(=O)[C@H](CC(C)C)NC(=O)[C@@H](NC(=O)[C@H](CCCCN)NC(=O)[C@H](CCCNC(=N)N)NC(=O)[C@H](Cc1ccc(O)cc1)NC(=O)[C@H](CO)NC(=O)[C@H](CC(N)=O)NC(=O)[C@@H](NC(=O)[C@H](Cc1ccccc1)NC(=O)[C@@H](NC(=O)[C@H](C)NC(=O)[C@H](CC(=O)O)NC(=O)[C@H](C)NC(=O)CCc1ccc(O)cc1)[C@@H](C)CC)[C@@H](C)O)C(C)C)[C@@H](C)CC)C(=O)N[C@@H](CO)C(=O)NCCCCNC(=N)N [Example II, (Dat^1,Abu^15,Orn^21,Nle^27,Agm^29)hGH-RH(1-29)] (Desaminotyrosyl-ADAIFTNSYRKVL[Abu]QLSAR[Orn]LLQDI[Nle]S-Agmatine) | 6.4 | – |
| hGH-RH(1-29)NH2 (YADAIFTNSYRKVLGQLSARKLLQDIMSR-NH2; UniProt P01286 32-60, looked up, fragment) | – | approximately 50% |
